Results published in patent US11059886B1, “Methods and compositions for treating inflammatory or autoimmune diseases or conditions using GRM8 activators” (Flagship Pioneering Innovations V, Inc., priority 2018, dated 2021).

Test system: M2-like macrophages
Assay: IL-8 secretion by M-CSF-differentiated human monocyte-derived M2-like macrophages (LEGENDplex bead-based immunoassay of supernatant)
Assay type: cell-based
Details: M2-like macrophages from human CD14+ monocytes
Protocol: CD14+ monocytes were isolated from human PBMCs using negative magnetic bead selection (Stemcell Technologies) on day 0. Cells were cultured with M-CSF to differentiate monocytes to macrophages. On day 6, cells were treated with L-AP4 (selective group III metabotropic glutamate receptor agonist) (Sigma-Aldrich), at concentrations 1 μM and 10 μM overnight. Supernatant was collected and LEGENDplex™ bead-based immunoassays (Biolegend) were performed to detect for changes in cytokines secreted.
Secretion of the inflammatory cytokine, IL-8, was decreased with the addition of the mGluR8 agonist in M2-like macrophages, consistent across multiple donors, as shown in Table 15 below.

In the case of NC(CCP(=O)(O)O)C(=O)O [L-AP4], the “Fold change of IL-8 (Normalized to M2-like Macs + LPS with no compound treatment)” value (L-AP4 1 μM overnight) is reported as 0.646 fold change and the “Fold change of IL-8 (Normalized to M2-like Macs + LPS with no compound treatment)” value (L-AP4 10 μM overnight) is reported as 0.866 fold change.
